Source: patent EP4818168A1, “FUSED RING COMPOUND, PHARMACEUTICAL COMPOSITION THEREOF AND USE THEREOF” (priority 2023, dated 2025)
Where two headings read alike, the source gives them in different places.

Key:
[1] = target: T1, AURKA (Homo sapiens, UniProt O14965); format: cell-based; conditions: Jurkat cells, 24 h, Table 2
T1 construct: endogenous in cells; host or cells: Jurkat cells
T1 sequence (O14965 1-403): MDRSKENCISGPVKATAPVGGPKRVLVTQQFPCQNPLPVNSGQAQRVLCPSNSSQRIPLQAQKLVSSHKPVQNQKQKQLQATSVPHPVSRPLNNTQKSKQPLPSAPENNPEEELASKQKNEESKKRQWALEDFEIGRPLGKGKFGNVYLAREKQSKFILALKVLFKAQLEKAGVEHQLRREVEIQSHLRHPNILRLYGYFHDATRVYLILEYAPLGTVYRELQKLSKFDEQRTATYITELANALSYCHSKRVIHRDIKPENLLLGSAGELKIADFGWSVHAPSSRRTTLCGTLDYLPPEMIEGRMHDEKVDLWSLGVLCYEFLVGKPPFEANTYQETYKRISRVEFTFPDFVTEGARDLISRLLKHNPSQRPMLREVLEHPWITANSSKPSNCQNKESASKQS
Description: WB is a classical biochemical experimental method used to detect the abundance of a target protein in a sample of cells or biological tissue. It relies on specific antigen-antibody binding to detect protein signals from the sample processed by gel electrophoresis: the protein specifically binds to a primary antibody at an epitope; the primary antibody is then conjugated with a secondary antibody to amplify the signal cascade; the signal is read out by chemiluminescent or fluorescent detection. The intracellular protein content is ultimately characterized by the intensity of the optical signals. […] The DC50 value can be calculated by curve fitting of the protein WB exposure signals.
The experimental procedure is as follows: • 1. Seed Jurkat cells into a 12-well plate at 1×10^6 cells/500 µL/well. • 2. Mix the culture medium with the compound to a concentration that is twice the desired final concentration. […] Transfer the cell suspension to a centrifuge tube. Rinse the 12-well plate with PBS and then transfer the PBS from the plate to the same centrifuge tube. Centrifuge at 3000 rpm for 5 min at room temperature. Aspirate the supernatant using a vacuum pump. […] Lyse on ice for 20 min. • 4. Centrifuge the lysed sample at 13000 rpm for 20 min at 4°C. Mix the supernatant with 5× protein loading buffer. Boil at 100°C for 5 min and then cool. Store the denatured protein sample at -20°C. • 5. […] Run electrophoresis at 80 V for 20 min, and then at 120 V constant voltage for 60 min. • 6. Transfer the protein onto a nitrocellulose membrane in an ice bath at 250 mA constant current for 90 min. • 7. […] Incubate with a primary antibody overnight at 4°C. • 9. […] Incubate with a secondary antibody for 1-2 h at room temperature. • 10. […] Expose and image the membrane using a LICOR Odyssey DLx imager.

[2] = tested on: H82 cells; experiment: cells; format: cell-based
Experimental: CellTiter-Glo (CTG) is a rapid cell viability test method based on ATP detection. […] Adenosine triphosphate (ATP) participates in various enzymatic reactions in organisms and is an indicator of living cell metabolism. Its content directly reflects the number of living cells and cell status. During the experiment, equal volume of CTG reagent is added to the cultured cells to measure the luminescence value. The chemiluminescent signal value is proportional to the amount of ATP, thus reflecting the number of viable cells. Therefore, cell viability can be obtained by detecting the ATP content. Compounds that affect cell viability will inhibit cell viability in a concentration-dependent manner, allowing a curve to be fitted to obtain the IC50 value.
The experimental procedure is as follows: • 11. Place the cell suspension in a 15 mL centrifuge tube, centrifuge at 1000 rpm for 5 min at room temperature, discard the supernatant, and collect the cell pellet. • 12. Resuspend the cell pellet with preheated complete cell culture medium (RPMI1640+10%FBS+1%PS), and use a Countess® automated cell counter to detect cell viability and density. […] Transfer the compound solution to a 96-well plate seeded with cells (final concentration of DMSO 0.1%), and place in a cell incubator at 37°C, 5% CO2 for 6 days. • 15. […] Protect from light during the whole process. Perform optical signal readings using a SpectraMax i3x reader. • 16. Data analysis: Remaining activity (%) = 100% * (1 - ((LumDMSO - Lummedium) - Lumsample) / (LumDMSO - LumPBS/medium)). Use GraphPad Prism 9.0 software to draw an S-shaped dose-survival rate curve and calculate the IC50 value using a nonlinear regression model.

[3] = Homo sapiens, NCI-H82, read-out: IC50 in H82 Cells
[4] = Homo sapiens, NCI-H82, H82 cells, 4000 cells/well, CellTiter-Glo, read-out: IC50 in H82 Cells

SMILES | Percentage of AURKA Degradation Induced by 100 nM Compound in Jurkat Cells [1] | Percentage of AURKA Degradation Induced by 1 µM Compound in Jurkat Cells [1] | IC50 [2, 3] [nM] | IC50 ([2]; read-out: IC50 in H82 Cells, H82 cells, 4000 cells/well, CellTiter-Glo) [nM] | IC50 [2, 4] [nM]
O=C1CCN(c2ccc(N3CCC4(CC3)CC(N3CCN(c5ccc(Nc6ncc7c(n6)-c6ccc(Cl)cc6C(c6c(F)cccc6F)=NC7)cc5)CC3)CO4)nc2)C(=O)N1 (racemic) [Compound A340] | +++ (Degradation > 70%) | +++ (Degradation > 70%) | < 1000 | – | –
O=C1CCN(c2ccc(N3CCOC4(CC(N5CCN(C67CC(Nc8ncc9c(n8)-c8ccc(Cl)cc8C(c8c(F)cccc8F)=NC9)(C6)C7)C(=O)C5)C4)C3)nc2)C(=O)N1 (single isomer, unassigned) [Compound A348] | +++ (Degradation > 70%) | ++ (30% < Degradation ≤ 70%) | < 1000 | – | –
O=C1CCN(c2ccc(N3CCOC4(CC(N5CCN(C67CC(Nc8ncc9c(n8)-c8ccc(Cl)cc8C(c8c(F)cccc8F)=NC9)(C6)C7)C(=O)C5)C4)C3)nc2)C(=O)N1 (single isomer, unassigned) [Compound A349] | ++ (30% < Degradation ≤ 70%) | ++ (30% < Degradation ≤ 70%) | – | < 1000 | –
O=C1CCN(c2ccc(N3CCC4(CC3)CC(NC(=O)c3ccc(Nc5ncc6c(n5)-c5ccc(Cl)cc5C(c5c(F)cccc5F)=NC6)cc3)C4)cc2F)C(=O)N1 [Compound A96] | ++ (30% < Degradation ≤ 70%) | +++ (Degradation > 70%) | – | – | < 1000
O=C1CCN(c2ccc(N3CCN(CCC#Cc4cccc(Nc5ncc6c(n5)-c5ccc(Cl)cc5C(c5c(F)cccc5F)=NC6)c4)CC3)cc2)C(=O)N1 [Compound A97] | + (Degradation ≤ 30%) | + (Degradation ≤ 30%) | – | – | < 1000
O=C1CCN(c2cccc(N3CCN(CC#Cc4cccc(Nc5ncc6c(n5)-c5ccc(Cl)cc5C(c5c(F)cccc5F)=NC6)c4)CC3)c2)C(=O)N1 [Compound A98] | – | – | < 1000 | – | –
O=C1CCN(c2ccc(N3CCN(CC#Cc4cccc(Nc5ncc6c(n5)-c5ccc(Cl)cc5C(c5c(F)cccc5F)=NC6)c4)CC3)cc2)C(=O)N1 [Compound A99] | ++ (30% < Degradation ≤ 70%) | + (Degradation ≤ 30%) | – | – | < 1000
O=C1CCN(c2cccc(N3CCN(CCC#Cc4cccc(Nc5ncc6c(n5)-c5ccc(Cl)cc5C(c5c(F)cccc5F)=NC6)c4)CC3)c2)C(=O)N1 [Compound A100] | ++ (30% < Degradation ≤ 70%) | ++ (30% < Degradation ≤ 70%) | – | – | < 1000
O=C1CCN(c2cccc(C#CCN3CCn4c(cnc4-c4ccc(Nc5ncc6c(n5)-c5ccc(Cl)cc5C(c5c(F)cccc5F)=NC6)cc4)C3)c2)C(=O)N1 [Compound A145] | – | – | – | – | < 1000
O=C1CCN(c2cncc(N3CCN(C4CN(c5cccc(Nc6ncc7c(n6)-c6ccc(Cl)cc6C(c6c(F)cccc6F)=NC7)c5)C4)CC3)c2C(F)F)C(=O)N1 [Compound A193] | + (Degradation ≤ 30%) | + (Degradation ≤ 30%) | – | – | –
O=C1CCN(c2cnc(N3CC(N4CCN(c5ccc(Nc6ncc7c(n6)-c6ccc(Cl)cc6C(c6c(F)cccc6F)=NC7)cc5)C(=O)C4)C3)s2)C(=O)N1 [Compound A201] | ++ (30% < Degradation ≤ 70%) | ++ (30% < Degradation ≤ 70%) | – | – | –
O=C1CCN(c2ccc(N3CC4(C3)CN(C3CN(c5ccc(Nc6ncc7c(n6)-c6ccc(Cl)cc6C(c6c(F)cccc6F)=NC7)cc5)C3)C4)nc2)C(=O)N1 [Compound A204] | +++ (Degradation > 70%) | ++ (30% < Degradation ≤ 70%) | – | – | –
O=C1CCN(c2cncc(N3CCC(N4CC5(CN(c6cccc(Nc7ncc8c(n7)-c7ccc(Cl)cc7C(c7c(F)cccc7F)=NC8)c6)C5)C4)CC3)c2)C(=O)N1 [Compound A241] | +++ (Degradation > 70%) | ++ (30% < Degradation ≤ 70%) | – | – | –
O=C1CCN(c2ccc(N3CCN(CC4CN([C@H]5CC[C@H](Nc6ncc7c(n6)-c6ccc(Cl)cc6C(c6c(F)cccc6F)=NC7)CC5)C4)CC3)nc2)C(=O)N1 [Compound A246] | + (Degradation ≤ 30%) | ++ (30% < Degradation ≤ 70%) | – | – | –
O=C1CCN(c2ccc(N3CCN(CC4CN([C@H]5CC[C@@H](Nc6ncc7c(n6)-c6ccc(Cl)cc6C(c6c(F)cccc6F)=NC7)CC5)C4)CC3)nc2)C(=O)N1 [Compound A247] | + (Degradation ≤ 30%) | + (Degradation ≤ 30%) | – | – | –
CN(C)CCOc1ccc2c(c1)C(c1c(F)cccc1F)=NCc1cnc(Nc3ccc(N4CC(CN5CCN(c6ccc(N7CCC(=O)NC7=O)cn6)CC5)C4)cc3)nc1-2 [Compound A260] | ++ (30% < Degradation ≤ 70%) | ++ (30% < Degradation ≤ 70%) | – | – | –
CP(C)(=O)c1ccc2c(c1)C(c1c(F)cccc1F)=NCc1cnc(Nc3ccc(N4CCN(C5CCN(c6ccc(N7CCC(=O)NC7=O)cn6)CC5)CC4)cc3)nc1-2 [Compound A266] | ++ (30% < Degradation ≤ 70%) | ++ (30% < Degradation ≤ 70%) | – | – | –
O=C1CCN(c2ccc(N3CCC(F)(CN4CCN(C56CC(Nc7ncc8c(n7)-c7ccc(Cl)cc7C(c7nccs7)=NC8)(C5)C6)C(=O)C4)CC3)nc2)C(=O)N1 [Compound A278] | ++ (30% < Degradation ≤ 70%) | +++ (Degradation > 70%) | – | – | –
COc1cc(Nc2ncc3c(n2)-c2ccc(Cl)cc2C(c2c(F)cccc2F)=NC3)ccc1N1CC(F)(CN2CCN(c3ccc(N4CCC(=O)NC4=O)cn3)CC2)C1 [Compound A289] | +++ (Degradation > 70%) | +++ (Degradation > 70%) | – | – | –
O=C1CCN(c2ccc(N3CCC(N4CCN(c5ccc(Nc6ncc7c(n6)-c6ccc(Cl)cc6C(c6c(F)cccc6F)=NC7)cc5)CC4=O)CC3)nc2)C(=O)N1 [Compound A295] | +++ (Degradation > 70%) | ++ (30% < Degradation ≤ 70%) | – | – | –
O=C1CCN(c2ccc(N3CCC(N4CCN(c5ccc(Nc6ncc7c(n6)-c6ccc(Cl)cc6C(C6CC6)=NC7)cc5)C(=O)C4)CC3)nc2)C(=O)N1 [Compound A328] | ++ (30% < Degradation ≤ 70%) | ++ (30% < Degradation ≤ 70%) | – | – | –
